Experimental data published in US12162840B2, “Herbicidal compositions” (SYNGENTA PARTICIPATIONS AG, priority 2018, dated 2024).

Tests used:
Assay type in all cases: in vivo
[1] = test system: warm season plant species; assay: B2 Post-emergence efficacy Test 2, warm season plant species; details: 15 days after application, 0-100 scale, 0=no damage, 100=total kill; for Herbicidal activity, ABUTH: Abutilon theophrasti; for Herbicidal activity, AMARE: Amaranthus retroflexus; for Herbicidal activity, BIDPI: Bidens pilosa; for Herbicidal activity, BRAPL: Brachiaria plantaginea; for Herbicidal activity, DIGSA: Digitaria sanguinalis; for Herbicidal activity, ECHCG: Echinochloa crus galli; for Herbicidal activity, ELEIN: Eleisine indica; for Herbicidal activity, EPHHL: Euphorbia hetrophylla; for Herbicidal activity, GLXMA: Glycine max; for Herbicidal activity, IPOHE: Ipomoea hederacea; for Herbicidal activity, ORYSA: Orysa sativa; for Herbicidal activity, PANMI: Panicum miliaceum; for Herbicidal activity, SETFA: Setaria faberi; for Herbicidal activity, SIDSP: Sida spinosa; for Herbicidal activity, SORVU: Sorghum bicolour; for Herbicidal activity, XANST: Xanthium strumarium; for Herbicidal activity, ZEAMX: Zea mays
In short: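 Herbicidal effect rated visually 0 (no damage) to 100 (complete kill) at 15 days post-treatment. Post-emergence spray at 12 days used an IF50 formulation with 0.2% v/v Genapol XO80 adjuvant; glasshouse 24/18 or 20/16 °C, 16 h light, 65% humidity.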

[2] = test system: Echinochloa crus-galli (ECHCG); assay: B1 Post-emergence efficacy Test 1; details: post-emergence application, 1000 g/ha, evaluated after 13 days
In short: (§1)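 Seedlings grown 8 days in soil pots in a glasshouse (24/16 °C day/night, 14 h light, 65% humidity) were sprayed post-emergence at 1000 g/ha from acetone/water (50:50) with 0.5% Tween 20. Percent damage was scored 13 days later on a five-point scale (5=80-100% to 1=0-19%).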

Setaria faberi (SETFA) = assay: B1 Post-emergence efficacy Test 1; details: post-emergence application, 1000 g/ha, evaluated after 13 days
In short: as §1

[3] = test system: Ipomoea hederacea (IPOHE); assay: B1 Post-emergence efficacy Test 1; details: post-emergence application, 1000 g/ha, evaluated after 13 days
In short: as §1

Lolium perenne (LOLPE) = assay: B1 Post-emergence efficacy Test 1; details: post-emergence application, 1000 g/ha, evaluated after 13 days
In short: as §1

[4] = test system: Amaranthus retoflexus (AMARE); assay: B1 Post-emergence efficacy Test 1; details: post-emergence application, 1000 g/ha, evaluated after 13 days
In short: as §1

Solanum nigrum (SOLNI) = assay: B1 Post-emergence efficacy Test 1; details: post-emergence application, 1000 g/ha, evaluated after 13 days
In short: as §1

Cc1nn(C)c(=O)c(-c2c(F)ccc(Cl)c2CCc2ccc(F)cc2)c1OC(=O)C(C)C [Compound 1.125]
Herbicidal activity, ABUTH ([1]; 15 g/Ha): 80 | Herbicidal activity, ABUTH ([1]; 30 g/Ha): 90 | Herbicidal activity, ABUTH ([1]; 60 g/Ha): 90 | Herbicidal activity, ABUTH ([1]; 125 g/Ha): 90 | Herbicidal activity, ABUTH ([1]; 250 g/Ha): 100 | Herbicidal activity, ABUTH ([1]; 500 g/Ha): 100 | Herbicidal activity, AMARE ([1]; 15 g/Ha): 80 | Herbicidal activity, AMARE ([1]; 30 g/Ha): 90 | Herbicidal activity, AMARE ([1]; 60 g/Ha): 90 | Herbicidal activity, AMARE ([1]; 125 g/Ha): 100 | Herbicidal activity, AMARE ([1]; 250 g/Ha): 100 | Herbicidal activity, AMARE ([1]; 500 g/Ha): 100 | Herbicidal activity, BIDPI ([1]; 15 g/Ha): 60 | Herbicidal activity, BIDPI ([1]; 30 g/Ha): 60 | Herbicidal activity, BIDPI ([1]; 60 g/Ha): 70 | Herbicidal activity, BIDPI ([1]; 125 g/Ha): 70 | Herbicidal activity, BIDPI ([1]; 250 g/Ha): 80 | Herbicidal activity, BIDPI ([1]; 500 g/Ha): 100 | Herbicidal activity, BRAPL ([1]; 15 g/Ha): 80 | Herbicidal activity, BRAPL ([1]; 60 g/Ha): 80 | Herbicidal activity, BRAPL ([1]; 125 g/Ha): 80 | Herbicidal activity, BRAPL ([1]; 250 g/Ha): 70 | Herbicidal activity, BRAPL ([1]; 500 g/Ha): 80 | Herbicidal activity, DIGSA ([1]; 15 g/Ha): 0 | Herbicidal activity, DIGSA ([1]; 30 g/Ha): 0 | Herbicidal activity, DIGSA ([1]; 60 g/Ha): 0 | Herbicidal activity, DIGSA ([1]; 125 g/Ha): 10 | Herbicidal activity, DIGSA ([1]; 250 g/Ha): 30 | Herbicidal activity, DIGSA ([1]; 500 g/Ha): 70 | Herbicidal activity, ECHCG ([1]; 15 g/Ha): 70 | Herbicidal activity, ECHCG ([1]; 30 g/Ha): 80 | Herbicidal activity, ECHCG ([1]; 60 g/Ha): 80 | Herbicidal activity, ECHCG ([1]; 125 g/Ha): 80 | Herbicidal activity, ECHCG ([1]; 250 g/Ha): 90 | Herbicidal activity, ECHCG ([1]; 500 g/Ha): 100 | Herbicidal activity, ELEIN ([1]; 15 g/Ha): 40 | Herbicidal activity, ELEIN ([1]; 30 g/Ha): 40 | Herbicidal activity, ELEIN ([1]; 60 g/Ha): 70 | Herbicidal activity, ELEIN ([1]; 125 g/Ha): 70 | Herbicidal activity, ELEIN ([1]; 250 g/Ha): 80 | Herbicidal activity, ELEIN ([1]; 500 g/Ha): 80 | Herbicidal activity, EPHHL ([1]; 15 g/Ha): 90 | Herbicidal activity, EPHHL ([1]; 30 g/Ha): 90 | Herbicidal activity, EPHHL ([1]; 60 g/Ha): 100 | Herbicidal activity, EPHHL ([1]; 125 g/Ha): 100 | Herbicidal activity, EPHHL ([1]; 250 g/Ha): 100 | Herbicidal activity, EPHHL ([1]; 500 g/Ha): 100 | Herbicidal activity, GLXMA ([1]; 15 g/Ha): 40 | Herbicidal activity, GLXMA ([1]; 30 g/Ha): 70 | Herbicidal activity, GLXMA ([1]; 60 g/Ha): 70 | Herbicidal activity, GLXMA ([1]; 250 g/Ha): 90 | Herbicidal activity, GLXMA ([1]; 500 g/Ha): 90 | Herbicidal activity, IPOHE ([1]; 15 g/Ha): 90 | Herbicidal activity, IPOHE ([1]; 30 g/Ha): 100 | Herbicidal activity, IPOHE ([1]; 60 g/Ha): 100 | Herbicidal activity, IPOHE ([1]; 125 g/Ha): 100 | Herbicidal activity, IPOHE ([1]; 250 g/Ha): 100 | Herbicidal activity, IPOHE ([1]; 500 g/Ha): 100 | Herbicidal activity, ORYSA ([1]; 15 g/Ha): 0 | Herbicidal activity, ORYSA ([1]; 30 g/Ha): 0 | Herbicidal activity, ORYSA ([1]; 60 g/Ha): 0 | Herbicidal activity, ORYSA ([1]; 125 g/Ha): 0 | Herbicidal activity, ORYSA ([1]; 250 g/Ha): 0 | Herbicidal activity, ORYSA ([1]; 500 g/Ha): 0 | Herbicidal activity, PANMI ([1]; 15 g/Ha): 20 | Herbicidal activity, PANMI ([1]; 30 g/Ha): 30 | Herbicidal activity, PANMI ([1]; 60 g/Ha): 50 | Herbicidal activity, PANMI ([1]; 125 g/Ha): 50 | Herbicidal activity, PANMI ([1]; 250 g/Ha): 70 | Herbicidal activity, PANMI ([1]; 500 g/Ha): 80 | Herbicidal activity, SETFA ([1]; 15 g/Ha): 0 | Herbicidal activity, SETFA ([1]; 30 g/Ha): 10 | Herbicidal activity, SETFA ([1]; 60 g/Ha): 20 | Herbicidal activity, SETFA ([1]; 125 g/Ha): 20 | Herbicidal activity, SETFA ([1]; 250 g/Ha): 20 | Herbicidal activity, SETFA ([1]; 500 g/Ha): 100 | Herbicidal activity, SIDSP ([1]; 60 g/Ha): 80 | Herbicidal activity, SIDSP ([1]; 125 g/Ha): 90 | Herbicidal activity, SIDSP ([1]; 250 g/Ha): 90 | Herbicidal activity, SIDSP ([1]; 500 g/Ha): 100 | Herbicidal activity, SORVU ([1]; 15 g/Ha): 0 | Herbicidal activity, SORVU ([1]; 30 g/Ha): 50 | Herbicidal activity, SORVU ([1]; 60 g/Ha): 50 | Herbicidal activity, SORVU ([1]; 125 g/Ha): 70 | Herbicidal activity, SORVU ([1]; 250 g/Ha): 80 | Herbicidal activity, SORVU ([1]; 500 g/Ha): 90 | Herbicidal activity, XANST ([1]; 30 g/Ha): 90 | Herbicidal activity, XANST ([1]; 60 g/Ha): 90 | Herbicidal activity, XANST ([1]; 125 g/Ha): 90 | Herbicidal activity, XANST ([1]; 250 g/Ha): 90 | Herbicidal activity, XANST ([1]; 500 g/Ha): 100 | Herbicidal activity, ZEAMX ([1]; 15 g/Ha): 0 | Herbicidal activity, ZEAMX ([1]; 30 g/Ha): 20 | Herbicidal activity, ZEAMX ([1]; 60 g/Ha): 30 | Herbicidal activity, ZEAMX ([1]; 125 g/Ha): 20 | Herbicidal activity, ZEAMX ([1]; 250 g/Ha): 40 | Herbicidal activity, ZEAMX ([1]; 500 g/Ha): 70 | percentage damage caused to the plant, five point scale, ECHCG [2]: 5 (5=80-100%) | percentage damage caused to the plant, five point scale, SETFA (Setaria faberi (SETFA)): 5 (5=80-100%) | percentage damage caused to the plant, five point scale, IPOHE [3]: 5 (5=80-100%) | percentage damage caused to the plant, five point scale, LOLPE (Lolium perenne (LOLPE)): 5 (5=80-100%) | percentage damage caused to the plant, five point scale, AMARE [4]: 5 (5=80-100%) | percentage damage caused to the plant, five point scale, SOLNI (Solanum nigrum (SOLNI)): 5 (5=80-100%)
